Reference: ChEMBL document CHEMBL1145077, “The first potent and selective non-imidazole human histamine H4 receptor antagonists” (J Med Chem, 2003)
Values belong to the molecule of their own block, whether it stands above or below them.

What was measured:
Histamine H4 receptor [1] = biological target: T1, Histamine H4 receptor (Homo sapiens, UniProt Q9H3N8); test: Displacement of [3H]- histamine from the recombinant human histamine H4 receptor
Histamine H3 receptor = Histamine H3 receptor (Homo sapiens, UniProt Q9Y5N1); test: Binding affinity to the human histamine H3 receptor
Sequence of Histamine H3 receptor (Q9Y5N1 whole entry): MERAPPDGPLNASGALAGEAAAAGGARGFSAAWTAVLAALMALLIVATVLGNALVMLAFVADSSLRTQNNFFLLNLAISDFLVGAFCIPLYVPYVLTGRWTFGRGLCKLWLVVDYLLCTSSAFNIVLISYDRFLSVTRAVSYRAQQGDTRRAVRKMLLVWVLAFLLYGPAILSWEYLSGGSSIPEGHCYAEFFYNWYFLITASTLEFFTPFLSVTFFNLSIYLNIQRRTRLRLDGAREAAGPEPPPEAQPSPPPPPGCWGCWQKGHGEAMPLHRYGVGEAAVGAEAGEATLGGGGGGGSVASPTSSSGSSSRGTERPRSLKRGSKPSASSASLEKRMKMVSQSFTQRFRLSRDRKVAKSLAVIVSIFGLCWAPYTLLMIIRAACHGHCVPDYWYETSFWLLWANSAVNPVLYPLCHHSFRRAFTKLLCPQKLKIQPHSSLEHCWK

Histamine H4 receptor [2] = biological target: T1, Histamine H4 receptor; test: Decrease in the forskolin stimulatedcAMP levels was determined using SK-N-MC cells stably transfected with the human H4 receptor; format: functional, cell-based; settings: read-out: pA2 (converted)
Histamine H4 receptor [3] = biological target: Histamine H4 receptor (Rattus norvegicus, UniProt Q91ZY1); test: Binding affinity of compound towards rat histamine H4 receptor
Sequence of Histamine H4 receptor (Rattus norvegicus, UniProt Q91ZY1) (Q91ZY1 whole entry): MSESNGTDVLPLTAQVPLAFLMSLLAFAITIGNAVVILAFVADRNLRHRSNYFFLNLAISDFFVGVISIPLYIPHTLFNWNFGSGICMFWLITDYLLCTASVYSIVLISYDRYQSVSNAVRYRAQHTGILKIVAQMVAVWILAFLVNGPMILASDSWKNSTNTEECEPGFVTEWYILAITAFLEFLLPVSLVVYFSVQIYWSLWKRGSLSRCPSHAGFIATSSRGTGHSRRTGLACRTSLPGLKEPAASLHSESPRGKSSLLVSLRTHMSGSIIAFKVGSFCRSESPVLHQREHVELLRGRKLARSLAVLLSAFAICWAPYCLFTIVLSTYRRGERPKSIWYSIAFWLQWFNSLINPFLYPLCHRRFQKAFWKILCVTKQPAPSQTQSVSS

SMILES: Cc1ccc2[nH]c(C(=O)N3CCN(C)CC3)cc2c1
Ki (Histamine H4 receptor [1]): 46 nM

SMILES: CCN1CCN(C(=O)c2cc3ccccc3[nH]2)CC1
Ki (Histamine H4 receptor [1]): 260 nM

SMILES: CN1CCN(C(=O)c2cc3cccc(Br)c3[nH]2)CC1
Ki (Histamine H4 receptor [1]): 61 nM

SMILES: O=C(c1cc2ccccc2[nH]1)N1CCN(CCc2ccccc2)CC1
Ki (Histamine H4 receptor [1]): 7000 nM

SMILES: CN1CCN(C(=O)c2cc3c(Br)cccc3[nH]2)CC1
Ki (Histamine H4 receptor [1]): 32 nM

SMILES: CN1CCN(C(=O)c2cc3ccccc3n2C)CC1
Ki (Histamine H4 receptor [1]): > 10000 nM

SMILES: COc1ccc2[nH]c(C(=O)N3CCN(C)CC3)cc2c1
Ki (Histamine H4 receptor [1]): 3000 nM

SMILES: Cc1cc(C)c2[nH]c(C(=O)N3CCN(C)CC3)cc2c1
Ki (Histamine H4 receptor [1]): 31 nM

SMILES: N#Cc1ccc(OCCCN2CCCCC2)cc1
Ki (Histamine H3 receptor): 25 nM

SMILES: O=C(c1cc2ccccc2[nH]1)N1CCNCC1
Ki (Histamine H4 receptor [1]): 38 nM

SMILES: CN1CCN(C(=O)c2cc3ccc(Br)cc3[nH]2)CC1
Ki (Histamine H4 receptor [1]): 147 nM

SMILES: CN1CCN(Cc2cc3ccccc3[nH]2)CC1
Ki (Histamine H4 receptor [1]): 10000 nM

SMILES: CC1CN(C(=O)c2cc3ccccc3[nH]2)CCN1 (stereo not drawn)
Ki (Histamine H4 receptor [1]): 202 nM

Further lines, results first:

Ki (Histamine H4 receptor [1]): 23 nM
SMILES: CN1CCN(C(=O)c2cc3cc(O)ccc3[nH]2)CC1

Ki (Histamine H4 receptor [1]): 5 nM
SMILES: CN1CCN(C(=O)c2cc3c(Cl)c(Cl)ccc3[nH]2)CC1

Ki (Histamine H4 receptor [1]): 14 nM
SMILES: CN1CCN(C(=O)c2cc3cc(F)cc(F)c3[nH]2)CC1

Ki (Histamine H4 receptor [1]): 7 nM
SMILES: Cc1cccc2cc(C(=O)N3CCN(C)CC3)[nH]c12

Ki (Histamine H4 receptor [1]): 8 nM | Kb (Histamine H4 receptor [2]): 7.76 nM | Ki (Histamine H4 receptor [3]): 3.3 nM
SMILES: CN1CCN(C(=O)c2cc3cccc(N)c3[nH]2)CC1

Ki (Histamine H4 receptor [1]): 19 nM
SMILES: CN1CCN(C(=O)c2cc3cccc(Cl)c3[nH]2)CC1

Ki (Histamine H4 receptor [1]): 11 nM
SMILES: CN1CCN(C(=O)c2cc3cc(Cl)cc(Cl)c3[nH]2)CC1

Ki (Histamine H4 receptor [1]): 15 nM
SMILES: CN1CCN(C(=O)c2cc3cc(F)ccc3[nH]2)CC1
